Experimental data reported in patent US10829452B2, “Histone methyltransferase inhibitors” (GLOBAL BLOOD THERAPEUTICS, INC., priority 2016, dated 2020).
Where a name gives a salt, the structure may show the parent alone.

Target: T1, G9a (Homo sapiens, UniProt Q96KQ7)
T1 sequence (Q96KQ7 1-1210): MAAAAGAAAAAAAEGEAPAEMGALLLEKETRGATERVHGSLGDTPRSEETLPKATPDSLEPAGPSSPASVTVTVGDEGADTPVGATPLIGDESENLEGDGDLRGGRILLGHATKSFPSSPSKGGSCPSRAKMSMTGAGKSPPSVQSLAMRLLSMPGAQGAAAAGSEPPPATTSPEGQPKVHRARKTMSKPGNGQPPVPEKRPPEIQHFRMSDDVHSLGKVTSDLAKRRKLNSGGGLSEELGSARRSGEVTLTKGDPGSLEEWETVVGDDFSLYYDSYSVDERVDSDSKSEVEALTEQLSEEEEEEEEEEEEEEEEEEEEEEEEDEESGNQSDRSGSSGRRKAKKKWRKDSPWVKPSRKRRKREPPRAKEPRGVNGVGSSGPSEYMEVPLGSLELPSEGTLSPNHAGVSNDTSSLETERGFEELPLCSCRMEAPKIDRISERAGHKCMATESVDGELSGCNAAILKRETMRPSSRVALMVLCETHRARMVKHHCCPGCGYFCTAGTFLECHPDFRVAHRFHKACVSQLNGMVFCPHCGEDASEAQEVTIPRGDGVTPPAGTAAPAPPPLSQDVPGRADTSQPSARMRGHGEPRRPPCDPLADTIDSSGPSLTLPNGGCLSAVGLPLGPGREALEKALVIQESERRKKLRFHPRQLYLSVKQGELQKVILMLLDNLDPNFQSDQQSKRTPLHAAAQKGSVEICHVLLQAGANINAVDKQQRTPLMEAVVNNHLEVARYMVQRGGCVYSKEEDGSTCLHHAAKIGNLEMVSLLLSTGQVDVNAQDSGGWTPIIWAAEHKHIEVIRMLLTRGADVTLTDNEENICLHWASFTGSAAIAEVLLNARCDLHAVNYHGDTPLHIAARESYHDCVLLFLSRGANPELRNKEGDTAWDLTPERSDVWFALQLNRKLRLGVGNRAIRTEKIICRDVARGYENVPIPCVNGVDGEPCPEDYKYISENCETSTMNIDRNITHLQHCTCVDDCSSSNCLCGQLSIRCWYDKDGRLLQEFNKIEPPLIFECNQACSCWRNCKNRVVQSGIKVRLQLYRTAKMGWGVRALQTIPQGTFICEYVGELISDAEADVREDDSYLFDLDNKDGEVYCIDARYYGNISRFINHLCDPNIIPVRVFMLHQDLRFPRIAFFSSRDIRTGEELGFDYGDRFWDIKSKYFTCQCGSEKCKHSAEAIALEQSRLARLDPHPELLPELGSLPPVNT
Assay: G9a AlphaLISA enzymatic activity assay
Type: biochemical
Details: 0.15 nM G9a, 15 uM S-adenosyl-methionine, 100 nM biotinylated histone 3 peptide (1-21), 1 hour at room temperature; read-out: G9a in (uM) (IC50, concentration that produced 50% inhibition)
Description: The G9a AlphaLISA assay was used to detect the methyl modifications of a biotinylated histone H3 peptide by the compounds. These modifications are done by the histone methyl transferase activity of the G9a enzyme. The assay consists of reading a chemiluminescent signal at 615 nm; this signal is generated by a laser excitation at 680 nm that transfers a reactive singlet oxygen between the donor beads and acceptor beads. Donor beads are streptavidin conjugated and bind to the biotin on the peptide. Acceptor beads are conjugated with an antibody that recognizes the specific G9a methyl mark on the peptide. If there is a methyl mark on the peptide, the acceptor beads will bind to the peptide. Upon binding, the acceptor beads will be in close proximity (<200 nm) of the donor beads and when the donor beads are excited, the transfer of the oxygen can occur and a strong signal will be generated. If there is no methyl mark, the interaction between beads will not occur and signal will be at background levels.
For the assay, the following buffer was used to set up reactions: 50 mM Tris-HCl pH9, 50 mM NaCl, 0.01% Tween-20 and 1 mM DTT (added fresh prior to starting the reactions). The assay is set up by adding a final concentration of 0.15 nM G9a, 15 uM S-adenosyl-methionine and, 100 nM biotinylated histone 3 peptide (1-21). The reaction is incubated at room temperature for 1 hour, and subsequently quenched by the addition of the acceptor beads (anti-H3k9me2 AlphaLISA acceptor beads, PerkinElmer # AL117) at a final concentration of 20 ug/mL. The acceptor beads are incubated for 1 hour. After 1 hour, the donor beads are added at a final concentration of 20 ug/mL (Alpha Streptavidin donor beads, PerkinElmer #6760002). Donor beads are incubated for 0.5 hours. Both donor and acceptor beads are resuspended in AlphaLISA 5X Epigenetics Buffer 1 Kit (PerkinElmer # AL008) prior to addition to the reaction. All manipulations and incubations with the donor and acceptor beads are done in subdued light. Signal is detected in an EnVision plate reader in Alpha mode (see ACS Med Chem Lett. 2014 Jan. 2; 5(2):205-9. doi: 10.1021/m1400496h. eCollection 2014. Discovery and development of potent and selective inhibitors of histone methyltransferase g9a.)
Percent inhibition was calculated for each compound dilution and the concentration that produced 50% inhibition was calculated. This value is presented as the IC50.

COc1cc2c3c(c(N[C@H]4CCC[C@H]4O)nc2cc1OCCCN1CCCC1)CCC3 (racemic) [Example 125, (1R,2S)-2-({8-methoxy-7-[3-(pyrrolidin-1-yl)propoxy]-1H,2H,3H-cyclopenta[c]quinolin-4-yl}amino)cyclopentan-1-ol and (1S,2R)-2-({8-methoxy-7-[3-(pyrrolidin-1-yl)propoxy]-1H,2H,3H-cyclopenta[c]quinolin-4-yl}amino)cyclopentan-1-ol (1:1) mixture as formate salt]
IC50: 1 µM

CNc1nc2cc(OCCCN3CCCC3)c(OC)cc2c2c1CCC2 [Example 1, 8-methoxy-N-methyl-7-[3-(pyrrolidin-1-yl)propoxy]-1H,2H,3H-cyclopenta[c]quinolin-4-amine formate]
IC50: 0.031 µM

CNc1nc2cc(OCCCN3CCCC3)c(OC)cc2c2c1CCCC2 [Example 2, 2-methoxy-N-methyl-3-[3-(pyrrolidin-1-yl)propoxy]-7,8,9,10-tetrahydrophenanthridin-6-amine formate]
IC50: 0.029 µM

COc1cc2c3c(c(NC(C)C)nc2cc1OCCCN1CCCC1)CCC3 [Example 3, 8-methoxy-N-(propan-2-yl)-7-[3-(pyrrolidin-1-yl)propoxy]-1H,2H,3H-cyclopenta-[c]quinolin-4-amine trifluoroacetate]
IC50: 0.015 µM

COc1cc2c3c(c(NCCO)nc2cc1OCCCN1CCCC1)CCC3 [Example 4, 2-({8-methoxy-7-[3-(pyrrolidin-1-yl)propoxy]-1H,2H,3H-cyclopenta[c]quinolin-4-yl}amino)ethan-1-oltrifluoroacetate trifluoroacetate]
IC50: 0.04 µM

COc1cc2c3c(c(NCCc4ccccc4)nc2cc1OCCCN1CCCC1)CCC3 [Example 5, 8-methoxy-N-(2-phenylethyl)-7-[3-(pyrrolidin-1-yl)propoxy]-1H,2H,3H-cyclopenta[c]quinolin-4-amine trifluoroacetate]
IC50: 0.15 µM

COc1cc2c3c(c(NC(C)C)nc2cc1OCCCN1CCCC1)CC(C)C3 (centres unmarked) [Example 6, 8-methoxy-2-methyl-N-(propan-2-yl)-7-[3-(pyrrolidin-1-yl)propoxy]-1H,2H,3H-cyclopenta[c]quinolin-4-amine formate]
IC50: 0.027 µM

COc1cc2c3c(c(NC4CCC4)nc2cc1OCCCN1CCCC1)CCC3 [Example 7, N-cyclobutyl-8-methoxy-7-[3-(pyrrolidin-1-yl)propoxy]-1H,2H,3H-cyclopenta[c]quinolin-4-amine formate]
IC50: 0.045 µM

COc1cc2c3c(c(NC4CCCC4)nc2cc1OCCCN1CCCC1)CCC3 [Example 8, N-cyclopentyl-8-methoxy-7-[3-(pyrrolidin-1-yl)propoxy]-1H,2H,3H-cyclopenta[c]quinolin-4-amine trifluoroacetate]
IC50: 0.04 µM

COc1cc2c3c(c(N(C)C(C)C)nc2cc1OCCCN1CCCC1)CCC3 [Example 9, 8-methoxy-N-methyl-N-(propan-2-yl)-7-[3-(pyrrolidin-1-yl)propoxy]-1H,2H,3H-cyclopenta[c]quinolin-4-amine trifluoroacetate]
IC50: 0.69 µM

COc1cc2c3c(c(N4CCCC4)nc2cc1OCCCN1CCCC1)CCC3 [Example 10, 1-{8-methoxy-7-[3-(pyrrolidin-1-yl)propoxy]-1H,2H,3H-cyclopenta[c]quinolin-4-yl}pyrrolidine formate]
IC50: 0.19 µM

COc1cc2c3c(c(NC(C)C)nc2cc1OCC1CCN(C)C1)CCC3 (centres unmarked) [Example 11, 8-methoxy-7-[(1-methylpyrrolidin-3-yl)methoxy]-N-(propan-2-yl)-1H,2H,3H-cyclopenta[c]quinolin-4-amine trifluoroacetate]
IC50: 0.27 µM

COc1cc2c3c(c(NC4CCOCC4)nc2cc1OCCCN1CCCC1)CCCC3 [Example 12, 2-methoxy-N-(oxan-4-yl)-3-[3-(pyrrolidin-1-yl)propoxy]-7,8,9,10-tetrahydrophenanthridin-6-amine trifluoroacetate]
IC50: 0.52 µM

COc1cc2c3c(c(NC(C)C)nc2cc1OCCCN1CCCC1)CCCC3 [Example 13, 2-methoxy-N-(propan-2-yl)-3-[3-(pyrrolidin-1-yl)propoxy]-7,8,9,10-tetrahydrophenanthridin-6-amine formate]
IC50: 0.042 µM

COc1cc2c3c(c(NC(C)=O)nc2cc1OCCCN1CCCC1)CCC3 [Example 14, N-{8-methoxy-7-[3-(pyrrolidin-1-yl)propoxy]-1H,2H,3H-cyclopenta[c]quinolin-4-yl}acetamide trifluoroacetate]
IC50: 0.19 µM

COc1cc2c3c(c(NCCO)nc2cc1OCCCN1CCCC1)CCCC3 [Example 15, 2-({2-methoxy-3-[3-(pyrrolidin-1-yl)propoxy]-7,8,9,10-tetrahydrophenanthridin-6-yl}amino)ethan-1-ol formate]
IC50: 0.19 µM

COc1cc2c3c(c(N[C@H]4C[C@H](O)C4)nc2cc1OCCCN1CCCC1)CCC3 [Example 16, (1r,3r-3-({8-methoxy-7-[3-(pyrrolidin-1-yl)propoxy]-1H,2H,3H-cyclopenta[c]quinolin-4-yl}amino)cyclobutan-1-ol trifluoroacetate]
IC50: 0.11 µM

COc1cc2c3c(c(N[C@@H]4CCOC4)nc2cc1OCCCN1CCCC1)CCC3 [Example 17, 8-methoxy-N-[(3R)-oxolan-3-yl]-7-[3-(pyrrolidin-1-yl)propoxy]-1H,2H,3H-cyclopenta[c]quinolin-4-amine formate]
IC50: 0.21 µM

COc1cc2c3c(c(N[C@H]4CCOC4)nc2cc1OCCCN1CCCC1)CCC3 [Example 18, 8-methoxy-N-[(3S)-oxolan-3-yl]-7-[3-(pyrrolidin-1-yl)propoxy]-1H,2H,3H-cyclopenta[c]quinolin-4-amine formate]
IC50: 0.11 µM

COc1cc2c3c(c(NC4CC4)nc2cc1OCCCN1CCCC1)CCCC3 [Example 19, N-cyclopropyl-2-methoxy-3-[3-(pyrrolidin-1-yl)propoxy]-7,8,9,10-tetrahydrophenanthridin-6-amine formate]
IC50: 0.057 µM

CNc1nc2cc(OCCCN3CCCC3)c(OC)cc2c2c1CC(O)CC2 (centres unmarked) [Example 20, 2-methoxy-6-(methylamino)-3-[3-(pyrrolidin-1-yl)propoxy]-7,8,9,10-tetrahydrophenanthridin-8-ol formate]
IC50: 0.14 µM

COc1cc2c3c(cnc2cc1OCCCN1CCCC1)CCC3 [Example 21, 1-[3-({8-methoxy-1H,2H,3H-cyclopenta[c]quinolin-7-yl}oxy)propyl]pyrrolidine trifluoroacetate]
IC50: 0.62 µM

CNc1nc2cc(OCCCN3CCCC3)c(OC)cc2c2c1CCN2 [Example 22, 8-methoxy-N-methyl-7-[3-(pyrrolidin-1-yl)propoxy]-1H,2H,3H-pyrrolo[3,2-c]quinolin-4-amine trifluoroacetate]
IC50: 0.003 µM
